“And” between values parts separate entries of the source, which are not always exact repeats. Equal entries are not always repeated.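 48-hour exposure; five concentrations; linearly interpolated endpoints. Here, GI50 denotes the concentration required for 50% inhibition of growth. At the TGI there is no net growth.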 Some results are limits rather than exact numbers.

For the first test, the system named is RPMI-8226 leukemia. The test is described as follows: DTP human tumour cell line panel, 48 h.
One may read the TGI as the concentration giving total growth inhibition. Regarding `COCCOC(=O)C1=C(O)c2ccccc2S(=O)(=O)N1C`, the TGI is over 100 µM.

For the compound `CNC(=O)OCc1nc(SSC(C)(C)C)n(C)c1COC(=O)NC`, the TGI amounted to 8.92 µM.

Regarding `CC(C)C(O)(C(C)C)C(C)C`, the concentration for total growth inhibition (TGI) was over 100 µM.

One may read the GI50 as the concentration giving 50% growth inhibition. As to `CC(C)CNc1nc(-c2ccccc2Cl)nc2ccccc12`, the GI50 was 12.6 µM and the TGI turned out to be 32.7 µM.

On to `O=C(O)CSCCc1ccccc1`, for which the TGI was over 100 µM.

In turn, `CC(C)(C)c1cc([N+](=O)[O-])cc([N+](=O)[O-])c1O` had a TGI of over 10 µM.

With `Cc1ccc(S(=O)(=O)N=Nc2c(O)[nH]c3cc(O)c(C(=O)O)cc23)cc1`, the TGI was over 100 µM.

As for `O=C(O)CCCc1ccc2ccc3ccccc3c2c1`, the TGI was over 100 µM.

For the compound `CSC(SC)(C(=O)O)c1cc(-c2c(Cl)cccc2Cl)no1`, the TGI is 50.4 µM.

Another test has as its system MDA-MB-435. The test is described as follows: DTP human tumour cell line panel, 48 h.
As to `C[C@]12CCc3sc(Nc4ccc(OC(F)(F)F)cc4)nc3C1=CC[C@@H]1[C@@H]2CC[C@]2(C)C(=O)CC[C@@H]12`, the GI50 was 2.72 µM and the TGI was 10.1 µM.

As for `CCN1C(=O)c2ccc3c4c(ccc(c24)C1=O)C(=O)N(CCCNCc1ccccc1OC)C3=O`, the GI50 was 0.173 µM and the TGI is 0.322 µM.

Take `O=C(/C=C/c1ccccc1)Nc1ncc(Cc2ccccc2Cl)s1`: the GI50 was 0.0972 µM and the TGI stood at 0.344 µM.

For the compound `CN(c1ccc(NC(=O)Nc2c(Cl)cccc2Cl)cc1)c1ccnc(Nc2cccc(CS(C)(=O)=O)c2)n1`, the GI50 is 2.26 µM and the TGI stood at 10.9 µM.

For `CCCCCCCCCCCCCCCCCCOC[C@H](COP(=O)(O)O[C@H]1[C@H](O)[C@@H](O)[C@H](O)C[C@H]1O)OC`, the GI50 is 65.9 µM and 11.8 µM; the TGI was > 100 µM and 43.8 µM.

Regarding `CN(C)C/C=C/C(=O)Nc1ccc(C(=O)N[C@@]2(C)CCC[C@@H](Nc3ncc(Cl)c(-c4c[nH]c5ccccc45)n3)C2)nc1`, the GI50 is 0.0108 µM and the TGI came out at 0.112 µM.

With `Nc1n[nH]c2cccc(C#Cc3cccc(NC(=O)c4cccc(C(F)(F)F)c4)c3)c12`, the GI50 is 3.04 µM and the TGI amounted to 13.7 µM.

Regarding `CCCCCCCCn1ccc2cc(NC(=O)Cn3cc(CN4CCCCCC4)nn3)ccc21`, the GI50 is 1.69 µM and the TGI came to 3.18 µM.

`COCCOC(=O)C1=C(O)c2ccccc2S(=O)(=O)N1C` displayed a TGI of over 100 µM.

Consider `CNC(=O)OCc1nc(SSC(C)(C)C)n(C)c1COC(=O)NC`, for which the TGI is 16 µM.

`CC(C)C(O)(C(C)C)C(C)C` gave a TGI of over 100 µM.

As for `CC(C)CNc1nc(-c2ccccc2Cl)nc2ccccc12`, the GI50 is 16.5 µM and the TGI was found to be 30.8 µM.

For the compound `CN(C)CCOc1ccc([N+](=O)[O-])c2cccnc12`, the TGI is over 100 µM.

With `O=C(O)CSCCc1ccccc1`, the TGI is over 100 µM.

`CC(C)(C)c1cc([N+](=O)[O-])cc([N+](=O)[O-])c1O`: the TGI is over 10 µM.

With `COc1ccc2c(c1)C(=O)/C(=C/c1cccc(OCC(=O)c3ccccc3)c1)O2`, the GI50 is 3.4 µM and the TGI worked out at 13.6 µM.

`Cc1ccc(S(=O)(=O)N=Nc2c(O)[nH]c3cc(O)c(C(=O)O)cc23)cc1` gave a TGI of over 100 µM.

The compound `O=C(O)CCCc1ccc2ccc3ccccc3c2c1` gave a TGI of over 100 µM.

For the compound `CNC(=O)OCc1c(COC(=O)NC)c(-c2ccc(-c3ccccc3)cc2)n(C)c1C`, the TGI is 21.9 µM.

As for `CSC(SC)(C(=O)O)c1cc(-c2c(Cl)cccc2Cl)no1`, the TGI was over 100 µM.

In a further test the test system is HOP-62 NSCLC. The test is described as follows: DTP human tumour cell line panel, 48 h.
Take `C[C@]12CCc3sc(Nc4ccc(OC(F)(F)F)cc4)nc3C1=CC[C@@H]1[C@@H]2CC[C@]2(C)C(=O)CC[C@@H]12`: the GI50 was 1.92 µM and the TGI is 4.19 µM.

As for `CCN1C(=O)c2ccc3c4c(ccc(c24)C1=O)C(=O)N(CCCNCc1ccccc1OC)C3=O`, the GI50 was 0.925 µM and the TGI stood at 2.78 µM.

Take `O=C(/C=C/c1ccccc1)Nc1ncc(Cc2ccccc2Cl)s1`: the GI50 was 0.505 µM and the TGI was over 100 µM.

As to `CN(c1ccc(NC(=O)Nc2c(Cl)cccc2Cl)cc1)c1ccnc(Nc2cccc(CS(C)(=O)=O)c2)n1`, the GI50 was 3.71 µM and the TGI came to 11.9 µM.

For the compound `CCCCCCCCCCCCCCCCCCOC[C@H](COP(=O)(O)O[C@H]1[C@H](O)[C@@H](O)[C@H](O)C[C@H]1O)OC`, the GI50 is > 100 µM and 15.7 µM; the TGI is > 100 µM and 41.5 µM.

As to `Nc1n[nH]c2cccc(C#Cc3cccc(NC(=O)c4cccc(C(F)(F)F)c4)c3)c12`, the GI50 was 3.41 µM and the TGI was 13.9 µM.

For `CCCCCCCCn1ccc2cc(NC(=O)Cn3cc(CN4CCCCCC4)nn3)ccc21`, the GI50 was 1.64 µM and the TGI is 3.14 µM.

Turning to `COCCOC(=O)C1=C(O)c2ccccc2S(=O)(=O)N1C`, the TGI is over 100 µM.

On to `CNC(=O)OCc1nc(SSC(C)(C)C)n(C)c1COC(=O)NC`, for which the TGI came to 31.1 µM.

With `CC(C)C(O)(C(C)C)C(C)C`, the concentration for total growth inhibition (TGI) was over 100 µM.

For `CC(C)CNc1nc(-c2ccccc2Cl)nc2ccccc12`, the GI50 was 15.8 µM and the TGI was found to be 29.2 µM.

Consider `CN(C)CCOc1ccc([N+](=O)[O-])c2cccnc12`, for which the TGI was over 100 µM.

As for `O=C(O)CSCCc1ccccc1`, the TGI is over 100 µM.

In turn, `CC(C)(C)c1cc([N+](=O)[O-])cc([N+](=O)[O-])c1O` registered a concentration for total growth inhibition (TGI) of over 10 µM.

On to `COc1ccc2c(c1)C(=O)/C(=C/c1cccc(OCC(=O)c3ccccc3)c1)O2`, for which the GI50 was 14.5 µM and the TGI was found to be 28.5 µM.

Take `Cc1ccc(S(=O)(=O)N=Nc2c(O)[nH]c3cc(O)c(C(=O)O)cc23)cc1`: the total growth inhibition concentration (TGI) is over 100 µM.

The compound `O=C(O)CCCc1ccc2ccc3ccccc3c2c1` gave a TGI of over 100 µM.

`CNC(=O)OCc1c(COC(=O)NC)c(-c2ccc(-c3ccccc3)cc2)n(C)c1C` had a TGI of 18.8 µM.

On to `CSC(SC)(C(=O)O)c1cc(-c2c(Cl)cccc2Cl)no1`, for which the TGI was over 100 µM.

These data come from PubChem BioAssay (NCI).
